≈ marks a conversion by molar mass, not a printed value. Like-named read-outs stand apart in the source and are kept apart here. Where a SMILES comes first, the peptide text is derived from it. [ ]: non-standard residue; d: D form. Leu(ol) = CC(C)C[C@H](N)CO; Aib = CC(C)(N)C(=O)O

Test [1] concerns human lung cancer (A549). Kind of test: cells. The class given is cell-based. The settings on record: MTT, mean ± SD of three experiments, read-out: IC50 ± standard deviation. On the procedure: (§1) The cytotoxicity testing of compound 1 was performed against various cell lines, which includes human lung cancer (A549), human colon cancer (LS-180), human myeloid leukemia (HL-60) and human breast cancer (MDA-MB-231) using MTT (3-(4,5-dimethylthiazole-2-yl)-2,5-diphenyltetrazolium bromide). Herein, paclitaxel was used as positive control for cytotoxic assay. […] Further, the cell-cycle assay was performed on HL-60 cell lines. The compound 1 was treated against HL-60 cells at concentrations 5, 10, 20 and 30 μM and incubated for 24 h. […] Apoptotic bodies are small DNA fragments wrapped around the single membrane vesicles mainly formed when cells undergo apoptosis. These apoptotic bodies can be visualized under a fluorescent microscope by using DNA staining dyes such as 4′,6-diamidino-2-phenylindole (DAPI). The HL-60 cells were incubated with the compound 1 at different concentrations (5, 10, 20 and 30 μM) for 24 h. […] The % apoptosis is also represented graphically in Fig. 7.
(§2) The cytotoxic effect of compound 1 on cancer cells was assayed by using MTT dye. The HL-60 cell lines were seeded for 4 h in round bottom 96 well plates. It was then treated with different concentrations of compound 1 dissolved in DMSO and incubated for 48 h. With 3 h earlier to experiment termination, the MTT dye (20 μL) from the stock solution of 2.5 mg mL^−1 was added to each well. The MTT-formazan crystals thus formed were dissolved in DMSO (160 μL) and observed at 570 nm. The untreated control culture was treated with DMSO (<0.2%).

Test [2] deals with human breast cancer (MDA-MB-231). The test is described as follows: cells. The class given is cell-based. The settings on record: MTT, mean ± SD of three experiments, read-out: IC50 ± standard deviation. As for the experimental part:
as §1, §2

The subject of test [3] is human colon cancer (LS-180). The test is described as follows: cells. The settings on record: mean ± SD of three experiments, read-out: IC50 ± standard deviation. In kind it is cell-based. On the procedure:
as §1, §2

For test [4], the system named is human myeloid leukemia (HL-60). The test is described as follows: cells. The class given is cell-based. The settings on record: MTT, mean ± SD of three experiments, read-out: IC50 ± standard deviation. On the procedure: as §1, §2
Test [5] relates to M. tuberculosis H37Rv. Kind of test: microbe, parasite or virus in culture. The settings on record: Mycobacterium tuberculosis, read-out: Minimum Inhibitory Concentration (MIC).
Test [6] deals with M. tuberculosis H37Rv. The settings on record: 48 h.
For test [7], the system named is HL-60 cells. Kind of test: Nuclear morphology, DAPI staining, fluorescence microscopy. In kind it is cell-based, human. The settings on record: HL-60, 5, 10, 20 and 30 μM, 24 h. As for the experimental part:
as §1
HL-60 cells were incubated with compound 1 in a 12 well plate. After 24 h, cells were centrifuged at 400 × g, collected and washed two times with PBS. The cells were fixed using 1 mL solution of cold acetic acid in methanol (1 : 3) and incubated overnight at 4 °C. Further, the cells were centrifuged at 400 × g, collected and re-suspended in fixing solution (100 μL). […]

The test system of test [8] is HL-60 cells. Kind of test: Cell cycle analysis, propidium iodide staining, flow cytometry. The class given is cell-based, human. The settings on record: 24 h, PI staining. As for the experimental part: as §1
The cell cycle phase distribution analysis in HL-60 cells was carried out by propidium iodide (PI) staining. The HL-60 cells were treated with different concentration (5, 10, 20 and 30 μM) of 1. After 24 h, the cells were centrifuged and collected at 400 × g and washed two times with PBS followed by fixing with ice-cold ethanol (70%). It was incubated overnight at 4 °C. Next day, cells were centrifuged at 4000 rpm, collected and washed with PBS followed by incubation with RNase (0.2 mg mL^−1) for 90 min at 37 °C. It was then stained with PI (10 μg mL^−1) and kept for 30 min in dark. The analysis of cells were carried out through flow-cytometer (FACS Calibur, Becton Dickinson) using list mode on 10 000 events for FL2-A vs. FL2-W. The ModFit software was used for the calculation of fluorescence intensity of the sub-G1 cell fraction representing the apoptotic cell population.
For orientation: Flow cytometry measures light scatter and fluorescence of single cells or particles in a stream.

Setting [9] is: 48 h incubation, read at 570 nm.

In the case of `CC(=O)O[C@H]1C(=O)[C@@]2(C)[C@H]([C@H](OC(=O)c3ccccc3)[C@]3(O)C[C@H](OC(=O)[C@H](O)[C@@H](NC(=O)c4ccccc4)c4ccccc4)C(C)=C1C3(C)C)[C@]1(OC(C)=O)CO[C@@H]1C[C@@H]2O` [Paclitaxel, paclitaxel, reference compound], the IC50 in test [1] (Homo sapiens, positive control) is 6.2 ± 0.1 nM; in test [2] (Homo sapiens, positive control), 3.3 ± 0.1 nM; in test [3] (Homo sapiens, LS180, MTT, positive control) it was 2.2 ± 0.1 nM; in test [4] (Homo sapiens, positive control) it was 1.8 ± 0.1 nM.

Take `CO[C@H]1/C=C/O[C@@]2(C)Oc3c(C)c(O)c4c(O)c(c(/C=N/N5CCN(C)CC5)c(O)c4c3C2=O)NC(=O)/C(C)=C\C=C\[C@H](C)[C@H](O)[C@@H](C)[C@@H](O)[C@@H](C)[C@H](OC(C)=O)[C@@H]1C` [Rifampicin]: the MIC in test [5] came to 0.06 µg/mL (≈ 0.0729 µM).

For `CC(=O)NC(C)(C)C(=O)N[C@@H](CCC(N)=O)C(=O)N[C@@H](CC(C)C)C(=O)NC(C)(C)C(=O)N1CCC[C@H]1C(=O)N[C@H](C(=O)N[C@@H](CC(C)C)C(=O)NC(C)(C)C(=O)N1CCC[C@H]1C(=O)NC(C)(C)C(=O)NC(C)(C)C(=O)NC(C)(C)C(=O)N1CCC[C@H]1C(=O)N[C@H](CO)CC(C)C)C(C)C` [compound 1, Velutibol A] (Ac-[Aib]QL[Aib]PVL[Aib]P[Aib][Aib][Aib]P[Leu(ol)]), the “Minimum Inhibitory Concentration (MIC)” value in test [6] was 32 µg/mL. For the same compound, the “Formation of apoptotic bodies” value in test [7] was “increased in a dose-dependent manner”. Also, the “Apop (apoptotic DNA population, sub-G1)” value in test [8] (HL-60, 10 μM) turned out to be 70%; in test [8] (HL-60, 20 μM) it was 85%; in test [8] (HL-60, 30 μM), 99%. The IC50 is 23000 ± 800 nM in test [1] (setting [9]); 7000 ± 200 nM in test [2] (setting [9]); 26000 ± 1100 nM in test [3] (MTT, 48 h incubation, read at 570 nm); 4000 ± 100 nM in test [4] (setting [9]).

One may read the IC50 as the concentration that gives 50% inhibition.
